Marks after values point to notes of the source that are not given here.
Test system: osteoclast differentiation
Experiment: Osteoclast differentiation in co-culture of mouse bone marrow cells and ST2 cells, TRAP staining (Examples 8-9)
Type: cell-based
Settings: for % number of osteoclast (vs. solvent control group): 0.1 μM each, day 7; for activity at 0.1 µM: Mus musculus, Osteoclast, 168 h, Individual treatment (compounds), day 7, read-out: % number of osteoclast (vs. solvent control group)
Summary of the method: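 Bone marrow cells from 6-8-week male ddY mice were co-cultured with ST2 stromal cells under 10^−8 M vitamin D3 and 10^−8 M dexamethasone, with compounds at 0.1 μM final (0.1% DMSO control), refreshed on days 3 and 5. On day 7, TRAP-positive osteoclasts with ≥6 nuclei were counted and expressed as % of solvent control (n=4).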

[1] = Combination treatment (alendronic acid + compounds)
[2] = Combination treatment (risedronic acid + compounds)

SMILES	% number of osteoclast (vs. solvent control group) [1]	% number of osteoclast (vs. solvent control group) [2]	activity at 0.1 µM
Cc1nc(-c2ccc(OCCCOc3ccc(C(=N)NO)cc3)cc2)c(C(C)C)s1 [Compound 193, N-hydroxy-4-{3-[4-(5-isopropyl-2-methyl-1,3-thiazol-4-yl)phenoxy]propoxy}-benzamidine]	34 ± 5.0^ab %	27 ± 4.8^ac %	48 ± 4.4%
Cc1nc(-c2ccc(OCCCCOc3ccc(C(=N)NO)cc3)cc2)c(C(C)C)s1 [Compound 194, N-hydroxy-4-{4-[4-(5-isopropyl-2-methyl-1,3-thiazol-4-yl)phenoxy]butoxy}-benzamidine]	33 ± 7.1^ab %	30 ± 7.0^ac %	74 ± 10.1%
CCc1sc(C2CCCCC2)nc1-c1ccc(OCCCCOc2ccc(C(=N)NO)cc2)cc1 [Compound 196, N-hydroxy-4-{4-[4-(2-cyclohexyl-5-ethyl-thiazol-4-yl)-phenoxy]-butoxy}-benzamidine]	37 ± 4.6^ab %	42 ± 8.8^ac %	68 ± 7.1%
Cc1nc(-c2ccc(OCc3ccccc3COc3ccc(C(=N)NO)cc3)cc2)c(C(C)C)s1 [Compound 208, N-hydroxy-4-{2-[4-(5-isopropyl-2-methyl-thiazol-4-yl)-phenoxymethyl]-benzyloxy}-benzamidine]	75 ± 6.3%	67 ± 6.5^ac %	92 ± 5.8%
Cc1nc(-c2ccc(OCc3cccc(COc4ccc(C(=N)NO)cc4)c3)cc2)c(C(C)C)s1 [Compound 209, N-hydroxy-4-{3-[4-(5-isopropyl-2-methyl-thiazol-4-yl)-phenoxymethyl]-benzyloxy}-benzamidine]	41 ± 12.0^ab %	50 ± 6.1^ac %	74 ± 7.4%
Cc1nc(-c2ccc(OCCCCCOc3ccc(C(=N)NO)cc3)cc2)c(CCN2CCCCC2)s1 [Compound 216, N-hydroxy-4-(5-{4-[2-methyl-5-(2-piperidin-1-yl-ethyl)-thiazol-4-yl]-phenoxy}-pentyloxy)-benzamidine]	72 ± 13.0%	48 ± 7.8^ac %	70 ± 5%
Cc1nc(-c2ccc(OCCCCCOc3ccc(C(=N)NO)cc3)cc2)c(CCNCCCn2ccnc2)s1 [Compound 218, N-hydroxy-4-[5-(4-{5-[2-(3-imidazol-1-yl-propylamino)-ethyl]-2-methyl-thiazol-4-yl}-phenoxy)-pentyloxy]-benzamidine]	39 ± 10.4^b %	25 ± 7.5^ac %	56 ± 1.9%
Cc1nc(-c2ccc(OCCCCCOc3ccc(C(=N)NO)cc3)cc2)c(CCNC(C)C)s1 [Compound 219, N-hydroxy-4-(5-{4-[5-(2-isopropylamino-ethyl)-2-methyl-thiazol-4-yl]-phenoxy}-pentyloxy)-benzamidine]	51 ± 5.4^b %	40 ± 3.8^c %	61 ± 10.5%
Cc1nc(-c2ccc(OCCCCCOc3ccc(C(=N)NO)cc3)cc2)c(CCNCCCOC(C)C)s1 [Compound 220, N-hydroxy-4-[5-(4-{5-[2-(3-isopropoxy-propylamino)-ethyl]-2-methyl-thiazol-4-yl}-phenoxy)-pentyloxy]-benzamidine]	53 ± 4.7^ab %	40 ± 5.1^ac %	69 ± 3.2%
Cc1nc(-c2ccc(OCCCCCOc3ccc(C(=N)NO)cc3)cc2)c(CCn2ccnc2)s1 [Compound 222, N-hydroxy-4-(5-{4-[5-(2-imidazol-1-yl-ethyl)-2-methyl-thiazol-4-yl]-phenoxy}-pentyloxy)-benzamidine]	49 ± 6.8^ab %	36 ± 6.6^ac %	74 ± 7.1%
Cc1nc(-c2ccc(OCCCCCOc3ccc(C(=N)NO)cc3)cc2)c(CCNC2CCCCC2)s1 [Compound 223, N-hydroxy-4-(5-{4-[5-(2-cyclohexylamino-ethyl)-2-methyl-thiazol-4-yl]-phenoxy}-pentyloxy)-benzamidine]	73 ± 8.2%	60 ± 12.6%	81 ± 3.8%
CCN(CC)CCc1sc(C)nc1-c1ccc(OCCCCCOc2ccc(C(=N)NO)cc2)cc1 [Compound 224, N-hydroxy-4-(5-{4-[5-(2-diethylamino-ethyl)-2-methyl-thiazol-4-yl]-phenoxy}-pentyloxy)-benzamidine]	53 ± 2.9^ab %	58 ± 10.8%	77 ± 8.4%
Cc1nc(-c2ccc(OCCCCCOc3ccc(C(=N)NO)cc3)cc2)c(CCN(CCO)CCO)s1 [Compound 225, N-hydroxy-4-{5-[4-(5-{2-[bis-(2-hydroxy-ethyl)-amino]-ethyl}-2-methyl-thiazol-4-yl)-phenoxy]-pentyloxy}-benzamidine]	50 ± 4.8^ab %	48 ± 4.9^ac %	70 ± 7.1%
Cc1nc(-c2ccc(OCCCCCOc3ccc(C(=N)NO)cc3)cc2)c(CCN2CC(C)OC(C)C2)s1 (stereo not drawn) [Compound 227, N-hydroxy-4-[5-(4-{5-[2-(2,6-dimethyl-morpholin-4-yl)-ethyl]-2-methyl-thiazol-4-yl}-phenoxy)-pentyloxy]-benzamidine]	24 ± 5.0^ab %	17 ± 4.4^ac %	42 ± 4.6%
Cc1nc(-c2ccc(OCCCCCOc3ccc(C(=N)NO)cc3)cc2)c(CCN2CCSCC2)s1 [Compound 228, N-hydroxy-4-(5-{4-[2-methyl-5-(2-thiomorpholin-4-yl-ethyl)-thiazol-4-yl]-phenoxy}-pentyloxy)-benzamidine]	31 ± 4.8^ab %	20 ± 5.8^ac %	49 ± 3.5%
Cc1nc(-c2ccc(OCCCCCOc3ccc(C(=N)NO)cc3)cc2)c(CCN2CCOCC2)s1 [Compound 231, N-hydroxy-4-(5-{4-[2-methyl-5-(2-morpholin-4-yl-ethyl)-thiazol-4-yl]-phenoxy}-pentyloxy)-benzamidine]	50 ± 9.8^b %	40 ± 3.1^ac %	82 ± 14.6%
Cc1nc(-c2ccc(OCCCCCOc3ccc(C(=N)NO)cc3)cc2)c(CCN2CCN(C)CC2)s1 [Compound 232, N-hydroxy-4-[5-(4-{2-methyl-5-[2-(4-methyl-piperazin-1-yl)-ethyl]-thiazol-4-yl}-phenoxy)-pentyloxy]-benzamidine]	39 ± 5.2^b %	37 ± 4.9^c %	47 ± 9.4%
Cc1nc(-c2ccc(OCCCCCOc3ccc(C(=N)NO)cc3)cc2)c(CCNC(C)(C)C)s1 [Compound 234, N-hydroxy-4-(5-{4-[5-(2-tert-butylamino-ethyl)-2-methyl-thiazol-4-yl]-phenoxy}-pentyloxy)-benzamidine]	30 ± 6.1^b %	22 ± 4.0^ac %	44 ± 7.5%
Cc1nc(-c2ccc(OCCCCCOc3ccc(C(=N)NO)cc3)cc2)c(CCNCC(C)C)s1 [Compound 235, N-hydroxy-4-(5-{4-[5-(2-isobutylamino-ethyl)-2-methyl-thiazol-4-yl]-phenoxy}-pentyloxy)-benzamidine]	33 ± 1.8%	25 ± 4.4^c %	38 ± 7.6%
CC(C)c1nc(-c2ccc(OCCCCCOc3ccc(C(=N)NO)cc3)cc2)c(CCN2CCN(C)CC2)s1 [Compound 241, N-hydroxy-4-[5-(4-{2-isopropyl-5-[2-(4-methyl-piperazin-1-yl)-ethyl]-thiazol-4-yl}-phenoxy)-pentyloxy]-benzamidine]	24 ± 4.6^ab %	12 ± 1.4^ac %	61 ± 6.8%
CC(C)c1nc(-c2ccc(OCCCCCOc3ccc(C(=N)NO)cc3)cc2)c(CCn2ccnc2)s1 [Compound 242, N-hydroxy-4-(5-{4-[5-(2-imidazol-1-yl-ethyl)-2-isopropyl-thiazol-4-yl]-phenoxy}-pentyloxy)-benzamidine]	18 ± 3.5^ab %	13 ± 2.8^ac %	58 ± 3.4%
CC(C)c1nc(-c2ccc(OCCCCCOc3ccc(C(=N)NO)cc3)cc2)c(CCNCCN2CCOCC2)s1 [Compound 243, N-hydroxy-4-[5-(4-{2-isopropyl-5-[2-(2-morpholin-4-yl-ethylamino)-ethyl]-thiazol-4-yl}-phenoxy)-pentyloxy]-benzamidine]	24 ± 7.7^b %	12 ± 2.3^ac %	36 ± 4.9%
CC(C)c1nc(-c2ccc(OCCCCCOc3ccc(C(=N)NO)cc3)cc2)c(CCNCCCn2ccnc2)s1 [Compound 244, N-hydroxy-4-[5-(4-{5-[2-(3-imidazol-1-yl-propylamino)-ethyl]-2-isopropyl-thiazol-4-yl}-phenoxy)-pentyloxy]-benzamidine]	19 ± 3.3^ab %	11 ± 1.7^ac %	46 ± 2.9%
CC(C)c1nc(-c2ccc(OCCCCCOc3ccc(C(=N)NO)cc3)cc2)c(CCN2CCSCC2)s1 [Compound 245, N-hydroxy-4-(5-{4-[2-isopropyl-5-(2-thiomorpholin-4-yl-ethyl)-thiazol-4-yl]-phenoxy}-pentyloxy)-benzamidine]	23 ± 4.9^b %	16 ± 4.1^ac %	35 ± 5.7%
